These results are taken from patent publication US6685617B1, “Inhibitors of α4β1 mediated cell adhesion” (Pharmacia & Upjohn Company, priority 1998, dated 2004).

pIC50: −log10 of the molar value.

The target in experiment [1] is T1, α4β1 integrin (Jurkat T-cell adhesion to IL-1 stimulated endothelial cell monolayers) (Homo sapiens, UniProt P05556+P13612).
T1 construct: a T-cell line, Jurkat, known to express the α4β1 integrin; host or cells: Jurkat T-cell line
Put plainly: Jurkat-endothelial cell adhesion assay (Jurkat EC). The settings on record: Jurkat cells on IL-1 stimulated human umbilical vein endothelial cells; read-out: JK/EC (Jurkat EC Assay IC50 value range). In kind it is cell-based. Put shortly: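 Adhesion was expressed as percent of compound-free fluorescence after 20 min at 37° C (following 5 min settling on ice) of BCECF-loaded Jurkat T cells on washed HUVEC monolayers. The endothelium, passage 6 or lower, had received 0.1 ng/ml recombinant IL-1 for 4 hr at 37° C; compound was premixed with the T cells, typically at 100, 20, 5 and 1.25 μM.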

For experiment [2], the target named is T2, α4β1 integrin (Jurkat cell adhesion to immobilized CS-1 derived peptide CLHPGEILDVPST) (Homo sapiens, UniProt P05556+P13612).
T2 construct: 100 μl of Jurkat cells (2.5×10^6 cells/ml) in DMEM plus BSA; host or cells: Jurkat T-cell line
T2 sequence (P13612 34-1032): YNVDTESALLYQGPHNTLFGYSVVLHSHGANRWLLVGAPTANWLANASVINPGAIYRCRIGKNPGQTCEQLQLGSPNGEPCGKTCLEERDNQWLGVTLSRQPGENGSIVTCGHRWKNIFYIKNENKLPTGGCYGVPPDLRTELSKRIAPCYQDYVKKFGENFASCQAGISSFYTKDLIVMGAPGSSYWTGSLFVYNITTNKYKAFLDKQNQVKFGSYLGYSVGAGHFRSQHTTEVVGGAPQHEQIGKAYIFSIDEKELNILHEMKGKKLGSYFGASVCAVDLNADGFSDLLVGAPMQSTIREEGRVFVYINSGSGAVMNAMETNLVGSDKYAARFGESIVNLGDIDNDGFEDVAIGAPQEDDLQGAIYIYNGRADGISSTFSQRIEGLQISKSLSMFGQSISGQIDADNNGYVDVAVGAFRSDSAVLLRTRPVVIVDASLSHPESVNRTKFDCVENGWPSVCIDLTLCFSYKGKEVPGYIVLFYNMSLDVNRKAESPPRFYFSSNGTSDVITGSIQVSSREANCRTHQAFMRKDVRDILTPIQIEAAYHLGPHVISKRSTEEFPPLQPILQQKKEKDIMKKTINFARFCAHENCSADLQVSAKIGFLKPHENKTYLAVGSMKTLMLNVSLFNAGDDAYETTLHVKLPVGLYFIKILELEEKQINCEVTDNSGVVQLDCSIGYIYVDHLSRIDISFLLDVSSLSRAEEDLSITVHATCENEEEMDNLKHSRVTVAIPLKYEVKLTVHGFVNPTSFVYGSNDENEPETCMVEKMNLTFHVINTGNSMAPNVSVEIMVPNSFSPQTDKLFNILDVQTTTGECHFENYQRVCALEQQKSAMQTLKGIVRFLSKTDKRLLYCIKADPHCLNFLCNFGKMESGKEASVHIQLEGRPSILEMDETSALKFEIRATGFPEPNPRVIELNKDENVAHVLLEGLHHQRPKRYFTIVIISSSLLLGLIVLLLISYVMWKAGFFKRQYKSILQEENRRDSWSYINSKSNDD
T2 sequence (P05556 21-798): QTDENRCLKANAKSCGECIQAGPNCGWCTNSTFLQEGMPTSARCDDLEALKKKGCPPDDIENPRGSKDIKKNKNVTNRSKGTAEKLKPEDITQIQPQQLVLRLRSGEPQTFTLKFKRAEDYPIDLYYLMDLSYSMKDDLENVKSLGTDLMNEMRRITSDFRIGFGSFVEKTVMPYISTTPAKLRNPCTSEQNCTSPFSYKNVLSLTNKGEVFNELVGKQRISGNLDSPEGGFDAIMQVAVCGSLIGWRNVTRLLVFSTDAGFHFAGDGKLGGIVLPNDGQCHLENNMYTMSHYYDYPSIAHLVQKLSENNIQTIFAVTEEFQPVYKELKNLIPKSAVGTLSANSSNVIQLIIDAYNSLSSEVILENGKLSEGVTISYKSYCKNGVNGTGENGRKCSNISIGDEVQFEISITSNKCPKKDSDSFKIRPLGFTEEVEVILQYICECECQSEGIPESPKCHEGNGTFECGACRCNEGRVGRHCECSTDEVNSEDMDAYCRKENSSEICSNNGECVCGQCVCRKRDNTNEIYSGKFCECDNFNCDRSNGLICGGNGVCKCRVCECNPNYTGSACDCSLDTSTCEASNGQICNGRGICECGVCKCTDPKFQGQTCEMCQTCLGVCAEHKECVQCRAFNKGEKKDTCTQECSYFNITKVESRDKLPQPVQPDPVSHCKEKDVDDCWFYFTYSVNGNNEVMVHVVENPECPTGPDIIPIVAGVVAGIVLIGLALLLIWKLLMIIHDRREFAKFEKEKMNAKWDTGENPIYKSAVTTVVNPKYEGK
Put plainly: Jurkat-CS-1 assay. The experiment is classed as cell-based. The settings on record: Jurkat cells on CS-1 peptide coated plates; read-out: JK/CS-1 (Jurkat CS-1 Assay IC50 value range). Put shortly: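 CS-1 peptide was SPDP-crosslinked onto HSA-coated plates and blocked with BSA. Jurkat cells (2.5×10^6 cells/ml) in DMEM/BSA were mixed with compound, generally at 100, 20, 5 and 1.25 μM, and allowed to adhere for 1 hr at 37° C. Bound cells were fixed, stained with toluidine blue and quantified by OD590.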

T1 sequence (P13612 34-1032): as the sequence (P13612 34-1032) above
T1 sequence (P05556 21-798): as the sequence (P05556 21-798) above

For `COC(=O)CCCC(=O)N1CSC[C@@H]1C(=O)N[C@@H](Cc1ccc(NC(=O)c2c(Cl)cccc2Cl)cc1)C(=O)OC` (relative stereo) [Example 59, [S-(R*,R*)]-4-[[[1-[4-[(2,6-dichlorobenzoyl)amino]phenyl]methyl]-2-methoxy-2-oxoethyl]amino]carbonyl]-δ-oxo-3-thiazolidinepentanoic Acid 3-Methyl Ester], the pIC50 in experiment [1] is not above 6.00; in experiment [2] it was 6.12 to 7.30.

As for `O=C(O)CCCC(=O)N1CSC[C@@H]1C(=O)N[C@@H](Cc1ccc(NC(=O)c2c(Cl)cccc2Cl)cc1)C(=O)O` (relative stereo) [Example 60, [S-(R*,R*)]-4-[[[1-Carboxy-2-[4-[(2,6-dichlorobenzoyl)amino]phenyl]ethyl]amino]carbonyl]-δ-oxo-3-thiazolidinepentanoic Acid], the results for the pIC50 in experiment [1] and in experiment [2] were not below 6.60 and not below 7.30, respectively.

As for `CC1(C)SCN(C(=O)CCC(=O)O)[C@H]1C(=O)N[C@@H](Cc1ccc(NC(=O)c2c(Cl)cccc2Cl)cc1)C(=O)O` (relative stereo) [Example 63, [S-(R*,R*)]-4-[[[1-Carboxy-2-[4-[(2,6-dichlorobenzoyl)amino]phenyl]ethyl]amino]carbonyl]-5,5-dimethyl-δ-oxo-3-thiazolidinebutanoic Acid], the pIC50 is not below 6.60 in experiment [1] and not below 7.30 in experiment [2].

With `O=C(O)CCC(=O)N1CSC[C@@H]1C(=O)N[C@@H](Cc1ccc(OCc2c(Cl)cccc2Cl)cc1)C(=O)O` (relative stereo) [Example 64, [S-(R*,R*)]-4-[[[1-Carboxy-2-[4-[(2,6-dichlorophenyl)methoxy]phenyl]ethyl]amino]carbonyl]-γ-oxo-3-thiazolidinebutanoic Acid], the pIC50 in experiment [1] was not below 6.60; in experiment [2] it was not below 7.30.

With `O=C(O)CCC(=O)N1CSC[C@H]1C(=O)N[C@@H](Cc1ccc(NC(=O)c2c(Cl)cccc2Cl)cc1)C(=O)O` (relative stereo) [Example 67, [R-(R*,S*)]-4-[[[1-Carboxy-2-[4-[(2,6-dichlorobenzoyl)amino]phenyl]ethyl]amino]carbonyl]-γ-oxo-3-thiazolidinebutanoic Acid], the pIC50 in experiment [1] was not above 6.00; in experiment [2], 6.12 to 7.30.

Regarding `O=C(O)CCCC(=O)N1CSC[C@H]1C(=O)N[C@@H](Cc1ccc(NC(=O)c2c(Cl)cccc2Cl)cc1)C(=O)O` (relative stereo) [Example 68, [R-(R*,S*)]-4-[[[1-Carboxy-2-[4-[(2,6-dichlorobenzoyl)amino]phenyl]ethyl]amino]carbonyl]-δ-oxo-3-thiazolidinepentanoic Acid], the pIC50 is not above 6.00 in experiment [1] and 6.12 to 7.30 in experiment [2].

Regarding `COC(=O)[C@H](Cc1ccc(NC(=O)c2c(Cl)cccc2Cl)cc1)NC(=O)[C@@H]1CSC(C)(C)N1C(=O)OC(C)(C)C` (relative stereo) [Example 72, [R-(R*,S*)]-4-[[[1-[[4-[(2,6-Dichlorobenzoyl)amino]phenyl]methyl]-2-methoxy-2-oxo-ethyl]amino]carbonyl]-2,2-dimethyl-3-thiazolidinecarboxylic Acid 3-(1,1-Dimethylethyl)ester], the results for the pIC50 in experiment [1] and in experiment [2] were not above 6.00 and not above 6.12, respectively.

With `CC(C)(C)OC(=O)N1[C@H](C(=O)N[C@@H](Cc2ccc(NC(=O)c3c(Cl)cccc3Cl)cc2)C(=O)O)CSC1(C)C` (relative stereo) [Example 73, [R-(R*,S*)]-4-[[[Carboxy-2-[4-[(2,6-dichlorobenzoyl)amino]phenyl]ethyl]amino]carbonyl]-2,2-dimethyl-3-thiazolidinecarboxylic Acid 3-(1,1-Dimethylethyl)ester], the pIC50 in experiment [1] is not above 6.00; in experiment [2] it was 6.12 to 7.30.

Take `COC(=O)[C@H](Cc1ccc(NC(=O)c2c(Cl)cccc2Cl)cc1)NC(=O)[C@H]1CSC(C)(C)N1C(=O)OC(C)(C)C` (relative stereo) [Example 75, [S-(R*,R*)]-4-[[[1-[[4-[(2,6-Dichlorobenzoyl)amino]phenyl]methyl]-2-methoxy-2-oxo-ethyl]amino]carbonyl]-2,2-dimethyl-3-thiazolidinecarboxylic Acid 3-(1,1-Dimethylethyl)ester]: the pIC50 is not above 6.00 in experiment [1] and not above 6.12 in experiment [2].

Regarding `CC(C)(C)OC(=O)N1[C@@H](C(=O)N[C@@H](Cc2ccc(NC(=O)c3c(Cl)cccc3Cl)cc2)C(=O)O)CSC1(C)C` (relative stereo) [Example 76, [S-(R*,R*)]-4-[[[1-Carboxy-2-[4-[(2,6-dichlorobenzoyl)amino]phenyl]ethyl]amino]carbonyl]-2,2-dimethyl-3-thiazolidinecarboxylic Acid 3-(1,1-Dimethylethyl)ester], the pIC50 was not below 6.60 in experiment [1] and 6.12 to 7.30 in experiment [2].

`CCOC(=O)N1[C@@H](C(=O)N[C@@H](Cc2ccc(NC(=O)c3c(Cl)cccc3Cl)cc2)C(=O)OC)CSC12CCCC2` (relative stereo) [Example 77, [S-(R*,R*)]-3-[[[1-[[4-[(2,6-Dichlorobenzoyl)amino]phenyl]methyl]-2-methoxy-2-oxoethyl]amino]carbonyl]-1-thia-4-azaspiro[4.4]nonane-4-carboxylic Acid 4-Ethyl Ester]: the pIC50 in experiment [1] is not above 6.00; in experiment [2] it was not above 6.12.

As for `CCOC(=O)N1[C@@H](C(=O)N[C@@H](Cc2ccc(NC(=O)c3c(Cl)cccc3Cl)cc2)C(=O)O)CSC12CCCC2` (relative stereo) [Example 78, [S-(R*,R*)]-3-[[[1-Carboxy-2-[4-[(2,6-dichlorobenzoyl)amino]phenyl]ethyl]amino]carbonyl]-1-thia-4-azaspiro[4.4]nonane-4-carboxylic Acid 4-Ethyl Ester], the pIC50 in experiment [1] is not above 6.00; in experiment [2], 6.12 to 7.30.

For the compound `CCOC(=O)N1[C@@H](C(=O)N[C@@H](Cc2ccc(NC(=O)c3c(Cl)cccc3Cl)cc2)C(=O)OC)CSC12CCCCC2` (relative stereo) [Example 79, [S-(R*,R*)]-3-[[[1-[[4-[(2,6-Dichlorobenzoyl)amino]phenyl]methyl]-2-methoxy-2-oxoethyl]amino]carbonyl]-1-thia-4-azaspiro[4.5]decanecarboxylic Acid 4-Ethyl Ester], the pIC50 in experiment [1] was not above 6.00; in experiment [2], not above 6.12.

`CCOC(=O)N1[C@@H](C(=O)N[C@@H](Cc2ccc(NC(=O)c3c(Cl)cccc3Cl)cc2)C(=O)O)CSC12CCCCC2` (relative stereo) [Example 80, [S-(R*,R*)]-3-[[[1-Carboxy-2-[4-[(2,6-dichlorobenzoyl)amino]phenyl]ethyl]amino]carbonyl]-1-thia-4-azaspiro[4.5]decane-4-carboxylic Acid 4-Ethyl Ester]: the pIC50 in experiment [1] was not above 6.00; in experiment [2] it was not above 6.12.

With `CCOC(=O)N1[C@@H](C(=O)N[C@@H](Cc2ccc(NC(=O)c3c(Cl)cccc3Cl)cc2)C(=O)O)C(C)(C)SC1(C)C` (relative stereo) [Example 82, [S-(R*,R*)]-4-[[[1-Carboxy-2-[4-[(2,6-dichlorobenzoyl)amino]phenyl]ethyl]amino]carbonyl]-2,2,5,5-tetramethyl-3-thiazolidinecarboxylic Acid 3-Ethyl Ester], the pIC50 in experiment [1] was 6.00 to 6.60; in experiment [2], 6.12 to 7.30.

In the case of `CC1(C)SC[C@H](C(=O)N[C@@H](Cc2ccc(NC(=O)c3c(Cl)cccc3Cl)cc2)C(=O)O)N1C(=O)CCC(=O)O` (relative stereo) [Example 85, [S-(R*,R*)]-4-[[[1-Carboxy-2-[4-[(2,6-dichlorobenzoyl)amino]phenyl]ethyl]amino]carbonyl]-2,2-dimethyl-γ-oxo-3-thiazolidinebutanoic Acid], the pIC50 was not below 6.60 in experiment [1] and not below 7.30 in experiment [2].

In the case of `COC(=O)CCC(=O)N1[C@@H](C(=O)N[C@@H](Cc2ccc(NC(=O)c3c(Cl)cccc3Cl)cc2)C(=O)OC)C(C)(C)SC1(C)C` (relative stereo) [Example 86, [S-(R*,R*)]-4-[[[1-[[4-[(2,6-Dichlorobenzoyl)amino]phenyl]methyl]-2-methoxy-2-oxoethyl]amino]carbonyl]-2,2,5,5-tetramethyl-γ-oxo-3-thiazolidinebutanoic Acid Methyl Ester], the pIC50 in experiment [1] is not above 6.00; in experiment [2], not above 6.12.

Take `CC1(C)SC(C)(C)N(C(=O)CCCC(=O)O)[C@@H]1C(=O)N[C@@H](Cc1ccc(NC(=O)c2c(Cl)cccc2Cl)cc1)C(=O)O` (relative stereo) [Example 88, [R-(R*,S*)]-4-[[[1-Carboxy-2-[4-[(2,6-dichlorobenzoyl)amino]phenyl]ethyl]amino]carbonyl]-2,2,5,5-tetramethyl-δ-oxo-3-thiazolidinepentanoic Acid]: the pIC50 in experiment [1] is not above 6.00; in experiment [2] it was 6.12 to 7.30.

With `NC(=O)[C@H](Cc1ccc(OCc2c(Cl)cccc2Cl)cc1)NC(=O)[C@H]1CSCN1C(=O)OCCN1CCOCC1` (relative stereo) [Example 89, [S-(R*,R*)]-4-[[[1-[[4-[(2,6-Dichlorophenyl)methoxy]phenyl]methyl]-2-amino-2-oxoethyl]amino]carbonyl]-3-thiazolidinecarboxylic Acid 3-[2-(4-morpholinyl)ethyl]ester], the values for the pIC50 in experiment [1] and in experiment [2] were not above 6.00 and 6.12 to 7.30, respectively.

For `O=C(O)CCC(=O)N1CCSC[C@H]1C(=O)N[C@@H](Cc1ccc(NC(=O)c2c(Cl)cccc2Cl)cc1)C(=O)O` (relative stereo) [Example 99, [R-(R*,S*)]-3-[[[1-Carboxy-2-[4-[(2,6-dichlorobenzoyl)amino]phenyl]ethyl]amino]carbonyl]-γ-oxo-4-thiomorpholinebutanoic Acid], the pIC50 is not below 6.60 in experiment [1] and not below 7.30 in experiment [2].
